From ChEMBL document CHEMBL5325419, “Design, synthesis and biological evaluation of novel thiosemicarbazones as cruzipain inhibitors” (Eur J Med Chem, 2023) come the findings set out here.

Values joined by “and” are separate entries in the source; they are usually repeats but may differ in a detail not shown here. Equal entries are not always repeated. Active and inactive are the calls of the source. No cut-off for these calls is given here.

Assay [1] deals with T1, Cruzipain (Trypanosoma cruzi, UniProt P25779). The assay is described as follows: Inhibition of recombinant Trypanosoma cruzi Cruzipain using Z-FR-AMC as substrate preincubated for 20 mins followed by substrate addition and measured for 45 mins by fluorescence analysis.
T1 sequence (P25779 whole entry): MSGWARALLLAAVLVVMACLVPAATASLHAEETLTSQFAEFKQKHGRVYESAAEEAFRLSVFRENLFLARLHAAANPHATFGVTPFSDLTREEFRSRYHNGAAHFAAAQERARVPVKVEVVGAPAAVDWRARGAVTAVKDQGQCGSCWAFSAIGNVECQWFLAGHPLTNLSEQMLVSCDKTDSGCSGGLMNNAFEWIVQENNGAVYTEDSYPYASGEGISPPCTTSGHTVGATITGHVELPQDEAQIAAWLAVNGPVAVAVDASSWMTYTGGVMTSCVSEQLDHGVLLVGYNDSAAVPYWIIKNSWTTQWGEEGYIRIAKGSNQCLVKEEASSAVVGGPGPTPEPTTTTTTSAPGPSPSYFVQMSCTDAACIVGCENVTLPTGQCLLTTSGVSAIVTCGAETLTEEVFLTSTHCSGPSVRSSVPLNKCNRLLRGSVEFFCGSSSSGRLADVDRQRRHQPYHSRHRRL
Assay [2] concerns the target Cruzipain (Trypanosoma cruzi) (UniProt P25779). The assay is described as follows: Reversible inhibition of recombinant Trypanosoma cruzi Cruzipain using Z-LR-AMC as substrate at 10 uM preincubated for 60 mins followed by substrate addition and measured for 45 to 60 mins by fluorescence analysis. Particulars: time 105-120 min.
Assay [3] shares this target. Briefly: Time dependent inhibition of recombinant Trypanosoma cruzi Cruzipain using Z-FR-AMC as substrate at 125 nM preincubated for 60 mins followed by substrate addition and measured for 45 to 60 mins by fluorescence analysis. Particulars: time 105-120 min, TDE = time-dependent effect.
Assay [4] has the same target. The assay is described as follows: Time dependent inhibition of recombinant Trypanosoma cruzi Cruzipain using Z-FR-AMC as substrate at 1000 nM preincubated for 60 mins followed by substrate addition and measured for 45 to 60 mins by fluorescence analysis. Particulars: time 105-120 min, TDE = time-dependent effect.
For assay [5] the target is unchanged. Briefly: Inhibition of recombinant Trypanosoma cruzi Cruzipain using Z-FR-AMC as substrate at 125 to 1000 nM by fluorescence analysis. The conditions noted are these: dose 125-1000 nM.
For assay [6] the target is unchanged. The assay is described as follows: Reversible inhibition of recombinant Trypanosoma cruzi Cruzipain using Z-LR-AMC as substrate at 25 uM preincubated for 60 mins followed by substrate addition and measured for 45 to 60 mins by fluorescence analysis. Particulars: time 105-120 min.
The target is the same in assay [7]. The assay is described as follows: Reversible inhibition of recombinant Trypanosoma cruzi Cruzipain using Z-LR-AMC as substrate at 1 uM preincubated for 60 mins followed by substrate addition and measured for 45 to 60 mins by fluorescence analysis. The conditions noted are these: time 105-120 min.
The target in assay [8] is T1, Cruzipain. Briefly: Inhibition of recombinant Trypanosoma cruzi Cruzipain using Z-Phe-Arg-AMC as substrate preincubated for 5 mins followed by substrate addition by spectrofluorometry analysis.

Sequence of Cruzipain (Trypanosoma cruzi) (P25779 123-467 limits assumed): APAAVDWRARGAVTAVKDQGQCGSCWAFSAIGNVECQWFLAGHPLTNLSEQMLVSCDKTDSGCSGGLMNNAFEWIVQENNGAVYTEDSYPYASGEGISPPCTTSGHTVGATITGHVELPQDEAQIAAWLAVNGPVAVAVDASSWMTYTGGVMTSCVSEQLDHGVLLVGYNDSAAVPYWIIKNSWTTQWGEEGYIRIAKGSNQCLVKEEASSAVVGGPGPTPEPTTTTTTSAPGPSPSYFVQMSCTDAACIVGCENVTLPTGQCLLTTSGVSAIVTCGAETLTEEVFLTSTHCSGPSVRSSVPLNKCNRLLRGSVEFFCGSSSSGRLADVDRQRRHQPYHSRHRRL

Regarding `NC(=S)N/N=C(\CCN1CCCCC1)c1ccc(Cl)c(Cl)c1`, the IC50 on Cruzipain [1] (read-out: IC50) was 2.86 nM and 8.54 nM. In assay [2], the inhibition entry was “Active”. Further, the inhibition entry in assay [3] was “Tde”; in assay [4], “Tde”; in assay [5], “Dose-Dependent Effect”.
For the compound `NC(=S)N/N=C(\CCn1ccnc1)c1ccc(Cl)c(Cl)c1`, the inhibition result in assay [6] was “Active”. For the same compound, the inhibition entry in assay [3] is “Tde”; in assay [4], “Tde”; in assay [5], “Dose-Dependent Effect”.
As for `NC(=S)N/N=C(\CCN1CCOCC1)c1ccc(Cl)c(Cl)c1`, the IC50 at Cruzipain [1] (read-out: IC50) was 3.34 nM and 8.48 nM. In assay [7], the inhibition entry was “Active”. Besides, the values for the inhibition entry in assay [3], in assay [4] and in assay [5] were “Tde”, “Tde” and “Dose-Dependent Effect”, respectively.
Consider `C/C(=N\N=C(\N)S)c1cccc(Br)c1`, for which the IC50 on Cruzipain [8] was 110 nM.
As for `CC/C(=N\N=C(\N)S)c1ccc(Cl)c(Cl)c1`, the IC50 at Cruzipain [8] amounted to 24.5 nM.
For `N/C(S)=N/N=C/c1cccc(Br)c1`, the IC50 at Cruzipain [1] (read-out: pIC50 (converted)) was 1360 nM.
